Where “and” joins values, the source holds several entries; their conditions need not be identical. Equal entries are not always repeated. Where two headings read alike, the source gives them in different places.
Tests used:
[1] = tested on: HepG2.2.15 cells; format: cell-based, human; details: Cmpd 2 μM: 0.01, 0.0032, 0.001, 0.0003, 0.0001, 0
Source text: The combination results were completed in duplicate with each assay consisting of 4 technical repeats.
The combination results were completed in duplicate with each assay consisting of 4 technical repeats. In this assay system, the combination results in additive inhibition of HBV DNA.

[2] = tested on: HBV rcDNA; assay: Dual agent combination in HepDE19 cells, rcDNA by Quantigene 2.0 bDNA assay (Examples 5-8); format: cell-based, HBV; HepDE19 (HepG2 human hepatocarcinoma derived); details: Hepatitis B virus; for inhibition at 0.002 µM: TAF 0.002 μM alone; for inhibition at 0.007 µM: TAF 0.007 μM alone; for inhibition at 0.02 µM: TAF 0.020 μM alone; for inhibition at 0.06 µM: TAF 0.060 μM alone; for inhibition at 0.001 µM: TAF 0.001 μM alone; for inhibition at 0.003 µM: TAF 0.003 μM alone; for inhibition at 0.005 µM: TAF 0.005 μM alone; for inhibition at 0.01 µM: TAF 0.010 μM alone; for inhibition at 0.04 µM: TAF 0.040 μM alone; for inhibition at 0.08 µM: TAF 0.080 μM alone; for inhibition at 0.16 µM: TAF 0.160 μM alone; for inhibition at 0.32 µM: TAF 0.320 μM alone
Description: In vitro dual agent combination studies were conducted using the method of Prichard and Shipman 1990 (Prichard M N, Shipman C, Jr. 1990. Antiviral Res 14:181-205). The HepDE19 cell culture system is a HepG2 (human hepatocarcinoma) derived cell line that supports HBV DNA replication and cccDNA formation under control the control of a CMV Tet-off promoter system (Guo et al. 2007. J Virol 81:12472-84). HepDE19 (50,000 cells/well) were plated in 96 well collagen-coated tissue-culture treated microtiter plates in DMEM/F12 medium supplemented with 10% fetal bovine serum+1% penicillin-streptomycin with tetracycline (1 μg/mL) and incubated in a humidified incubator at 37° C. and 5% CO2 overnight. Next day, the cells were switched to fresh medium without tetracycline and incubated for 4 hrs at 37° C. and 5% CO2. The cells were switched to fresh medium and treated with inhibitor A and inhibitor B, at concentration range spanning their respective EC50 values. […] The two inhibitors were tested both singly as well as in combinations in a checkerboard fashion such that each concentration of inhibitor A was combined with each concentration of inhibitor B to determine their combination effects on inhibition of rcDNA production. There were four replicates of each concentration combination in each experiment. The plates were incubated for 7 days in a humidified incubator at 37° C. and 5% CO2. The level of rcDNA present in the wells was measured using a Quantigene 2.0 bDNA assay kit (Affymetrix, Santa Clara, Calif.) with HBV specific custom probe set (genotype D ayw) and according to the manufacturer's instructions and read using a luminescence plate reader and the relative luminescence units (RLU) data generated from each well was calculated as % inhibition of the untreated control wells and analyzed using the MacSynergy II program to determine whether the combinations were synergistic, additive or antagonistic using the interpretive guidelines established by Prichard and Shipman (Prichard M N, Shipman C, Jr. 1990. […] Each experiment was repeated at least three times and the averages and standard deviations of individual determinations was calculated to derive the conclusion. Concurrently, in each experiment, the effect of inhibitor combinations on cell viability was assessed using replicate plates in triplicates that were used to determine the ATP content as a measure of cell viability using the Cell-Titer Glo reagent (Promega, Madison, Wis.) as per the manufacturer's instructions.

[3] = HepDE19, read-out: AVERAGE % INHIBITION, Expt 1
[4] = HepDE19, read-out: AVERAGE % INHIBITION, Expt 2
[5] = HepDE19, read-out: AVERAGE % INHIBITION, Expt 3
[6] = HepDE19, read-out: AVERAGE % INHIBITION, Expt 4

## COCCCOc1cc2c(nc1OC)-c1cc(=O)c(C(=O)O)cn1[C@H](C(C)C)C2 [Compound 2]
[1]; ETV 0 μM
  Average percent of cell viability vs control: 92.68% and 81.35% and 91.36% and 92.57% and 80.37%
[1]; TAF 0 μM
  Average percent of cell viability vs control: 104.89% and 104.08% and 103.79% and 101.80% and 99.27%

## CC(C)OC(=O)[C@H](C)N[P@](=O)(CO[C@H](C)Cn1cnc2c(N)ncnc21)Oc1ccccc1 [TAF, tenofovir alafenamide]
[2]; [3]
  inhibition at 0.002 µM: -55.3%
  inhibition at 0.007 µM: -30.2%
  inhibition at 0.02 µM: -1.17%
  inhibition at 0.06 µM: 67%
[2]; [4]
  inhibition at 0.002 µM: 9.84%
  inhibition at 0.007 µM: 24.9%
  inhibition at 0.02 µM: 65.5%
  inhibition at 0.06 µM: 89.4%
[2]; [5]
  inhibition at 0.001 µM: -134%
  inhibition at 0.003 µM: -49.2%
  inhibition at 0.005 µM: -42.3%
  inhibition at 0.01 µM: -48.4%
  inhibition at 0.02 µM: -34.3%
  inhibition at 0.04 µM: 37%
  inhibition at 0.08 µM: 57.1%
  inhibition at 0.16 µM: 88%
  inhibition at 0.32 µM: 94.8%
[2]; [6]
  inhibition at 0.001 µM: 9.66%
  inhibition at 0.003 µM: -0.11%
  inhibition at 0.005 µM: -1.36%
  inhibition at 0.01 µM: 0.94%
  inhibition at 0.02 µM: 36.6%
  inhibition at 0.04 µM: 61.8%
  inhibition at 0.08 µM: 57.2%
  inhibition at 0.16 µM: 83.6%
  inhibition at 0.32 µM: 95.9%
[2]; HepDE19, read-out: Avg. Inhibitor B EC50
  EC50: 44 nM
[1]; TAF 0.0002 μM
  Average percent of cell viability vs control: 103.95%
[1]; TAF 0.0006 μM
  Average percent of cell viability vs control: 104.32%
[1]; TAF 0.0020 μM
  Average percent of cell viability vs control: 103.73%
[1]; TAF 0.0064 μM
  Average percent of cell viability vs control: 101.18%
[1]; TAF 0.0201 μM
  Average percent of cell viability vs control: 101.33%
[1]; TAF 0.0634 μM
  Average percent of cell viability vs control: 103.56%
[1]; TAF 0.2002 μM
  Average percent of cell viability vs control: 96.48%
[1]; TAF 0.6329 μM
  Average percent of cell viability vs control: 80.67%
[1]; TAF 2.0 μM
  Average percent of cell viability vs control: 88.67%
